For orientation: inhibition means the share of the control response that was lost under treatment.

Experimental findings from patent US10111875B2, “Pyrrolopyrimidine compounds and uses thereof” (HUTCHISON MEDIPHARMA LIMITED, priority 2010, dated 2018) are described below.

Each structure is given as a SMILES string.

Sequence of Recombinant human JAK1 catalytic domain (P23458 875-1153): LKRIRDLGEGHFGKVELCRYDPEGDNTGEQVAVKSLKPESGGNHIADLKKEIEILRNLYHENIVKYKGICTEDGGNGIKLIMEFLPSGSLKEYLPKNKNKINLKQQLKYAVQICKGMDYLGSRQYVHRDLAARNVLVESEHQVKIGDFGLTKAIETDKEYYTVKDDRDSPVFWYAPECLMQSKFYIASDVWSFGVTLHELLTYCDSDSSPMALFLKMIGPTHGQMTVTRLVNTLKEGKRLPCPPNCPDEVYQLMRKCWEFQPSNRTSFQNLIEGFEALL

The first test deals with Recombinant human JAK1 catalytic domain (Homo sapiens (Human), UniProt P23458). Description: JAK1 kinase assay (Z'-LYTE Tyr 6 Peptide). Type of test: biochemical. To be noted: JAK1 kinase assay, 0.3 uM concentration; read-out: inhibition percentage (IR %). The procedure:
JAK1/2/3 kinase assay are performed in vitro using Kit-Tyr 6 Peptide (Invitrogen, Cat. No. PV4122). TYK2 kinase assay are performed in vitro using Z′-LYTE™ Kinase Assay Kit-Tyr 3 Peptide (Invitrogen, Cat. No. PV3192). […] All compounds are initially tested at 8 different concentrations (1 μM down to 0.0003 μM) using a 1:3 serial dilution scheme.
Consider `CN(c1ccc(S(=O)(=O)NC(C)(C)C)cn1)[C@@H]1CCN(c2ncnc3[nH]ccc23)C1` [Compound 238], for which the inhibition at 0.3 µM is 50 to 100%.
Still for that read-out and setting: under `CN(c1ccc(C(=O)Nc2cccnc2)cn1)[C@@H]1CCN(c2ncnc3[nH]ccc23)C1` [Compound 198] stands 20 to 50%.
The same measure, in the same setting: the figure for `CN(c1ccc(NS(=O)(=O)Cc2cccc(Cl)c2)cn1)[C@@H]1CCN(c2ncnc3[nH]ccc23)C1` [Compound 224] is 50 to 100%; for `C#CCN(c1ccc(S(C)(=O)=O)cn1)[C@@H]1CCN(c2ncnc3[nH]ccc23)C1` [Compound 58] it is 20 to 50%.
Same read-out and setting: the figure for `CNC(=O)c1ccc(N(C)[C@@H]2CCN(c3ncnc4[nH]ccc34)C2)nc1` [Compound 175] is 20 to 50%; for `C[C@@H](NC(=O)c1ccc(N(C)[C@@H]2CCN(c3ncnc4[nH]ccc34)C2)nc1)c1ccccc1` [Compound 195] it is 50 to 100%; for `CN(c1ccc(C(=O)Nc2ccc(Cl)cc2)cn1)[C@@H]1CCN(c2ncnc3[nH]ccc23)C1` [Compound 193] it is 20 to 50%.
In the case of `CN(c1ccc(-c2nn[nH]n2)cc1F)[C@@H]1CCN(c2ncnc3[nH]ccc23)C1` [Compound 161], the inhibition at 0.3 µM fell in the range of 50 to 100%.
Same read-out and setting: under `CN(c1ccc(C(=O)Nc2ccc(F)cc2)cn1)[C@@H]1CCN(c2ncnc3[nH]ccc23)C1` [Compound 191] stands 50 to 100%; under `CN(C(=O)Nc1cccc(C#N)c1)[C@@H]1CCN(c2ncnc3[nH]ccc23)C1` [Compound 16, (R)-1-(1-(7H-pyrrolo[2,3-d]pyrimidin-4-yl)pyrrolidin-3-yl)-3-(3-cyanophenyl)-1-methylurea], 50 to 100%.
Same read-out and setting: the figure for `Cc1cc(N(C)[C@@H]2CCN(c3ncnc4[nH]ccc34)C2)nc(Cl)c1C#N` [Compound 72] is 50 to 100%; for `CN(c1ccc(-c2ccc(C#N)cc2)cn1)[C@@H]1CCN(c2ncnc3[nH]ccc23)C1` [Compound 146] it is 20 to 50%.
Same read-out and setting: under `CN(c1ccc2[nH]c(=O)[nH]c2n1)[C@@H]1CCN(c2ncnc3[nH]ccc23)C1` [Compound 164, (R)-5-((1-(7H-pyrrolo[2,3-d]pyrimidin-4-yl)pyrrolidin-3-yl)(methyl)amino)-1H-imidazo[4,5-b]pyridin-2(3H)-one] stands 50 to 100%; under `CN(c1ccc(C#N)cc1Cl)[C@@H]1CCN(c2ncnc3[nH]ccc23)C1` [Compound 112], 50 to 100%; under `CN(c1ccc(S(=O)(=O)C(F)(F)F)cc1)[C@@H]1CCN(c2ncnc3[nH]ccc23)C1` [Compound 122], 50 to 100%.
With `Cc1nc(N(C)[C@@H]2CCN(c3ncnc4[nH]ccc34)C2)ccc1C#N` [Compound 155], the inhibition at 0.3 µM is 50 to 100%.
Same read-out and setting: the figure for `CN(c1ccc(S(=O)(=O)Nc2ccc(F)cc2)cn1)[C@@H]1CCN(c2ncnc3[nH]ccc23)C1` [Compound 253] is 50 to 100%.
Still for that read-out and setting: under `CCS(=O)(=O)N(C)[C@@H]1CCN(c2ncnc3[nH]ccc23)C1` [Compound 48] stands 50 to 100%.
In the case of `CN(c1ccc(S(=O)(=O)NCc2ccc(F)cc2)cn1)[C@@H]1CCN(c2ncnc3[nH]ccc23)C1` [Compound 254], the inhibition at 0.3 µM lay in the range of 50 to 100%.
Still for that read-out and setting: under `CN(C(=O)C1(C#N)CC1)[C@@H]1CCN(c2ncnc3[nH]ccc23)C1` [Compound 6] stands 50 to 100%.
Take `CCN(c1c(F)cc(C#N)cc1F)[C@@H]1CCN(c2ncnc3[nH]ccc23)C1` [Compound 132]: the inhibition at 0.3 µM was in the range of 50 to 100%.
Turning to `CN(C)CCNS(=O)(=O)c1ccc(N(C)[C@@H]2CCN(c3ncnc4[nH]ccc34)C2)nc1` [Compound 248], the inhibition at 0.3 µM fell in the range of 50 to 100%.
Still for that read-out and setting: the figure for `CN(c1ccc(S(C)(=O)=O)cn1)[C@@H]1CCN(c2ncnc3[nH]ccc23)C1` [Compound 61] is 50 to 100%; for `CN(c1ccc(NS(=O)(=O)c2ccc(F)cc2)cn1)[C@@H]1CCN(c2ncnc3[nH]ccc23)C1` [Compound 212] it is 50 to 100%.
Still for that read-out and setting: the figure for `CCCC(=O)N(C)[C@@H]1CCN(c2ncnc3[nH]ccc23)C1` [Compound 3] is 50 to 100%; for `CN(c1ccc(C#N)c(O)n1)[C@@H]1CCN(c2ncnc3[nH]ccc23)C1` [Compound 260] it is 50 to 100%.
On the same count and under the same terms, under `CN(c1ccc(S(=O)(=O)NC2c3ccccc3C[C@H]2O)cn1)[C@@H]1CCN(c2ncnc3[nH]ccc23)C1` (stereo partly shown) [Compound 232] stands 20 to 50%; under `CN(C(=O)c1cccc(C#N)c1)[C@@H]1CCN(c2ncnc3[nH]ccc23)C1` [Compound 8], 20 to 50%.
With `C#CCN(c1cnc(C#N)cn1)[C@@H]1CCN(c2ncnc3[nH]ccc23)C1` [Compound 127], the inhibition at 0.3 µM is 50 to 100%.
Still for that read-out and setting: the figure for `CN(c1ccc(C(=O)NCCO)cn1)[C@@H]1CCN(c2ncnc3[nH]ccc23)C1` [Compound 190] is 50 to 100%; for `CN(CCC#N)[C@@H]1CCN(c2ncnc3[nH]ccc23)C1` [Compound 64] it is 50 to 100%.
On the same count and under the same terms, under `CN(C(=O)CS(C)(=O)=O)[C@@H]1CCN(c2ncnc3[nH]ccc23)C1` [Compound 27] stands 50 to 100%.
The same measure, in the same setting: the figure for `CN(c1ccc(S(=O)(=O)Nc2ccn(C)n2)cn1)[C@@H]1CCN(c2ncnc3[nH]ccc23)C1` [Compound 250] is 20 to 50%; for `C[C@H](NS(=O)(=O)c1ccc(N(C)[C@@H]2CCN(c3ncnc4[nH]ccc34)C2)nc1)c1ccc(F)cc1` [Compound 256] it is 50 to 100%; for `CN(c1ccc(C(=O)NC(CO)c2ccccc2Cl)cc1F)[C@@H]1CCN(c2ncnc3[nH]ccc23)C1` (stereo partly shown) [Compound 207] it is 50 to 100%.
Consider `CN(c1ccc(C(=O)Nc2cccc(F)c2)cn1)[C@@H]1CCN(c2ncnc3[nH]ccc23)C1` [Compound 177], for which the inhibition at 0.3 µM lay within 50 to 100%.
On the same count and under the same terms, the figure for `CN(C(=O)CO)[C@@H]1CCN(c2ncnc3[nH]ccc23)C1` [Compound 24] is 50 to 100%; for `CN(c1ccc(C#N)cc1[N+](=O)[O-])[C@@H]1CCN(c2ncnc3[nH]ccc23)C1` [Compound 107] it is 50 to 100%; for `CN(c1ccc2nn[nH]c2n1)[C@@H]1CCN(c2ncnc3[nH]ccc23)C1` [Compound 167, (R)—N-(1-(7H-pyrrolo[2,3-d]pyrimidin-4-yl)pyrrolidin-3-yl)-N-methyl-3H-[1,2,3]triazolo[4,5-b]pyridin-5-amine] it is 50 to 100%.
Same read-out and setting: under `CN([C@@H]1CCN(c2ncnc3[nH]ccc23)C1)S(=O)(=O)c1ccc([N+](=O)[O-])cc1` [Compound 11] stands 20 to 50%; under `COc1cccc(NC(=O)c2ccc(N(C)[C@@H]3CCN(c4ncnc5[nH]ccc45)C3)nc2)c1` [Compound 196], 20 to 50%; under `CN([C@@H]1CCN(c2ncnc3[nH]ccc23)C1)S(=O)(=O)c1ccc(C#N)cc1` [Compound 9], 20 to 50%.
The same measure, in the same setting: under `C[C@@H](NS(=O)(=O)c1ccc(N(C)[C@@H]2CCN(c3ncnc4[nH]ccc34)C2)nc1)c1ccc(F)cc1` [Compound 255] stands 50 to 100%.
Turning to `CN(C(=O)Nc1ccc(C#N)c(F)c1)[C@@H]1CCN(c2ncnc3[nH]ccc23)C1` [Compound 31], the inhibition at 0.3 µM was 50 to 100%.
In the case of `COc1nc(N(C)[C@@H]2CCN(c3ncnc4[nH]ccc34)C2)ccc1C#N` [Compound 42], the inhibition at 0.3 µM is 50 to 100%.
As for `N#Cc1cnc2c(c1)[nH]c(=O)n2[C@@H]1CCN(c2ncnc3[nH]ccc23)C1` [Compound 165, (R)-3-(1-(7H-pyrrolo[2,3-d]pyrimidin-4-yl)pyrrolidin-3-yl)-2-oxo-2,3-dihydro-1H-imidazo[4,5-b]pyridine-6-carbonitrile], the inhibition at 0.3 µM was 20 to 50%.
The same measure, in the same setting: under `CN(c1ccc(C(N)=O)cn1)[C@@H]1CCN(c2ncnc3[nH]ccc23)C1` [Compound 169, (R)-6-((1-(7H-pyrrolo[2,3-d]pyrimidin-4-yl)pyrrolidin-3-yl)(methyl)amino)nicotinamide] stands 20 to 50%; under `CN(c1ccc2nc[nH]c2n1)[C@@H]1CCN(c2ncnc3[nH]ccc23)C1` [Compound 163, (R)—N-(1-(7H-pyrrolo[2,3-d]pyrimidin-4-yl)pyrrolidin-3-yl)-N-methyl-3H-imidazo[4,5-b]pyridin-5-amine], 50 to 100%.
Still for that read-out and setting: the figure for `CN(c1ccn2nccc2n1)[C@@H]1CCN(c2ncnc3[nH]ccc23)C1` [Compound 88] is 20 to 50%.
Take `CN(c1ccc(C#N)cc1)[C@@H]1CCN(c2ncnc3[nH]ccc23)C1` [Compound 104]: the inhibition at 0.3 µM is 50 to 100%.
The same measure, in the same setting: under `CN(c1ccc(S(=O)(=O)NC2COC2)cn1)[C@@H]1CCN(c2ncnc3[nH]ccc23)C1` [Compound 242] stands 50 to 100%; under `CCN(c1ccc(C#N)cn1)[C@@H]1CCN(c2ncnc3[nH]ccc23)C1` [Compound 126, (R)-6-((1-(7H-pyrrolo[2,3-d]pyrimidin-4-yl)pyrrolidin-3-yl)(ethyl)amino)-nicotinonitrile], 50 to 100%.
Still for that read-out and setting: the figure for `N#Cc1ccc(N[C@@H]2CCN(c3ncnc4[nH]ccc34)C2)nc1` [Compound 81] is 50 to 100%.
The same measure, in the same setting: the figure for `C=CCN(C1CCCC1)[C@@H]1CCN(c2ncnc3[nH]ccc23)C1` [Compound 40] is 50 to 100%.
Take `CN(c1ccc(C(F)(F)F)cn1)[C@@H]1CCN(c2ncnc3[nH]ccc23)C1` [Compound 123]: the inhibition at 0.3 µM is 50 to 100%.

The test is the same for the next values; noted with them: read-out: inhibition percentage (IR %).
Turning to `CN(c1ccc(-c2ccncc2)cn1)[C@@H]1CCN(c2ncnc3[nH]ccc23)C1` [Compound 144], the inhibition at 0.3 µM lay in the range of 50 to 100%.
The same measure, in the same setting: under `C#Cc1ccc(N(C)[C@@H]2CCN(c3ncnc4[nH]ccc34)C2)nc1` [Compound 162, (R)—N-(1-(7H-pyrrolo[2,3-d]pyrimidin-4-yl)pyrrolidin-3-yl)-5-ethynyl-N-methylpyridin-2-amine] stands 50 to 100%.
The same measure, in the same setting: under `CN(c1cc(Cl)c(C#N)cc1F)[C@@H]1CCN(c2ncnc3[nH]ccc23)C1` [Compound 110] stands 20 to 50%.
